Assay results: US20250285714A1, “A PHARMACEUTICAL PLATFORM TECHNOLOGY FOR DRUG DISCOVERY AND CONSUMER HEALTH PRODUCT DEVELOPMENT” (SINOVEDA CANADA INC., priority 2021, published 2025)

Key:
[1] = human
Text: An inhouse physiologically based pharmacokinetic (PBPK) simulation program has been established. It supports one, two and multi-compartment models. The compartmental model program was designed using Matlab and Simulink to emulate human physiological conditions. With appropriate human physiological parameter input, absorption, distribution, metabolism and excretion profiles of compounds of interest can be estimated in human.
The parameter used for the evaluation is maximum exposure index (MEI), a product of AUC and the highest percentage recorded for Cannabis.

HepG2 cells [2] = assay: In-cell Western-blot protein expression in treated HepG2 cells; format: cell-based, human; settings: six hour treatment; CBD 17, CBC 23, CBN 20, Sorafenib 12, SCI-111 17, SCI-521 17 μg/ml
Description: In-cell Western-blot analysis: Protein expression was assessed by seeding 1000 HepG2 cells/well from cyro frozen stocks into 384 well optical bottom black culture plates from Thermo-Scientific (item 142761) in IMDM media with 20% FBS and 1% ethanol. […] After a six hour treatment, the cells were fixated with 4% formaldehyde for 15 minutes, permeated with 0.1% triton-x100 for 10 minutes, and left in blocking buffer (phosphate buffered saline (PBS) with 3% bovine serum albumin (BSA)) overnight at 4 degrees Celsius. The following day, the cells were rinsed with PBS, incubated with 25 μl PBS containing primary antibody (Table 1) for 3 hours at 25° C. Subsequently, the primary antibody was removed, cells were rinsed twice with PBS, and incubated with 25 μl of PBS containing the secondary antibody (Rabbit: Alexa Fluor 790 donkey anti-rabbit IgG (H+L) Lot 2409042; Mouse: Alexa Fluor 790 donkey anti-mouse IgG (H+L) Lot 2300923) at a concentration of 1:2000. Draq5 (1:2000) was added for normalization of data. After an hour incubation in the secondary antibody, the cells were rinsed with PBS and readings at 700 and 800 nm were acquired on a Licor Odyssey fluorescence imager with a resolution of 21 μm. Analysis was subsequently performed with Empiria Studio 2.1. A total of 5 samples were collected per antibody and the sample size was reduced to 3 for the statistical analysis.

HepG2 cells [3] = assay: rtPCR TaqMan array of cancer pathway genes in treated HepG2 cells; format: cell-based, human; settings: 6 h; CBD 17, CBC 23, CBN 20, 1:1:1 17, sorafenib 12 μg/ml
Description: rt-PCR: Target cancer gene pathways will be analyzed using a custom Taqman array card exploring 91 unique genes involved with a few cancer pathways.
Two million HepG2 cells in IMDM media with 20% FBS, and 1% ethanol were seeded in T75 flasks and incubated at 37° C., 7.5% CO2 until 70-80% confluent (approx. […]). The media were replenished with media containing individual cannabinoids (CBD 17 μg/ml, CBC 23 μg/ml, CBN 20 μg/ml) and cannabinoid mixture of CBD:CBC:CBN of 1:1:1 (17 μg/ml) and incubated for 6 hours prior to harvest. […] Untreated cells were included as a negative control Glyceraldehyde-3-phosphate dehydrogenase (GAPDH) was included as an endogenous control and used for normalization of the data.
RNA was extracted using Invitrogen's Dynabead mRNA DIRECT kit using the recommended protocol to provide 50 μL of a purified mRNA solution. […] of RT master mix was mixed into the mRNA solution and the mixture left to react at 37° C. for 60 minutes. Reverse transcriptase inactivation was performed at 95° C. for 5 minutes and the resulting cDNA samples were kept at 4° C. until use. Fifty-five microliters of TaqMan Fast Advance master mix were added to an equal amount of cDNA sample containing 1 μg/100 μl of cDNA, which was loaded into each card reservoir. The cards were centrifuged twice at 1200 RPM for 3 minutes in a Legend XFR centrifuge and the rtPCR reaction was conducted in a QuantStudio7 PCR instrument using the standard settings with 40 amplification cycles.
Assessment of cancer gene pathways were carried out using custom designed TaqMan array cards exploring 86 genes linked to numerous cancer related pathways. […] In addition to individual pathways, genes linked to specific cellular processes were also explored.

[4] = known human values; cited from earlier work

CC1(C)C2CCC1(C)C(O)C2 (centres unmarked) [Borneol]
MEI, AUC* % mass [1]: 0.10

CCCCCc1cc(O)c2c(c1)OC(C)(CCC=C(C)C)C=C2 (centres unmarked) [CBC, Cannabichromene]
Protein fold change, DVLD (Cellular Adhesion) (HepG2 cells [2]): 1.34 Fold change
Protein fold change, MEK (MAP kinase/PI3K) (HepG2 cells [2]): 1.22 Fold change
Protein fold change, MEK PO4 (MAP kinase/PI3K) (HepG2 cells [2]): 1.68 Fold change
Protein fold change, MET PO4 (Receptor) (HepG2 cells [2]): 1.80 Fold change
Protein fold change, PTEN PO4 (MAP kinase/PI3K) (HepG2 cells [2]): 1.40 Fold change
Protein fold change, TEAD2 (HIPPO signaling) (HepG2 cells [2]): 1.34 Fold change
Protein fold change, c-MYC (Apoptosis) (HepG2 cells [2]): 1.70 Fold change
Protein fold change, p53 (Apoptosis) (HepG2 cells [2]): 1.26 Fold change
rtPCR Log2 fold change relative to untreated cells, AKT1 (PI3K/AKT/MTOR) (HepG2 cells [3]): −1.915 Log2 fold change
rtPCR Log2 fold change relative to untreated cells, APFAF1 (Apoptosis) (HepG2 cells [3]): −1.945 Log2 fold change
rtPCR Log2 fold change relative to untreated cells, BAD (Apoptosis) (HepG2 cells [3]): −2.917 Log2 fold change
rtPCR Log2 fold change relative to untreated cells, BAX (Apoptosis) (HepG2 cells [3]): −2.332 Log2 fold change
rtPCR Log2 fold change relative to untreated cells, BCL2 (Apoptosis) (HepG2 cells [3]): 3.95 Log2 fold change
rtPCR Log2 fold change relative to untreated cells, BCL2L1 (Apoptosis) (HepG2 cells [3]): −1.241 Log2 fold change
rtPCR Log2 fold change relative to untreated cells, CAMK1 (Ca signaling) (HepG2 cells [3]): −2.15 Log2 fold change
rtPCR Log2 fold change relative to untreated cells, CCND1 (Cell Cycle Arrest) (HepG2 cells [3]): −1.206 Log2 fold change
rtPCR Log2 fold change relative to untreated cells, CDK1 (Cell Cycle Arrest) (HepG2 cells [3]): −1.725 Log2 fold change
rtPCR Log2 fold change relative to untreated cells, CDK2 (Cell Cycle Arrest) (HepG2 cells [3]): −1.316 Log2 fold change
rtPCR Log2 fold change relative to untreated cells, CDK4 (Cell Cycle Arrest) (HepG2 cells [3]): −1.914 Log2 fold change
rtPCR Log2 fold change relative to untreated cells, CDK6 (Cell Cycle Arrest) (HepG2 cells [3]): −1.735 Log2 fold change
rtPCR Log2 fold change relative to untreated cells, CRK - p38 (Cellular Adhesion) (HepG2 cells [3]): −1.414 Log2 fold change
rtPCR Log2 fold change relative to untreated cells, CTNNB1 (Cellular Adhesion) (HepG2 cells [3]): −1.487 Log2 fold change
rtPCR Log2 fold change relative to untreated cells, ELK1 (Ca signaling) (HepG2 cells [3]): −3.143 Log2 fold change
rtPCR Log2 fold change relative to untreated cells, GSK3B (Cellular Adhesion) (HepG2 cells [3]): −1.728 Log2 fold change
rtPCR Log2 fold change relative to untreated cells, MAP1LC3A (MAP kinase) (HepG2 cells [3]): −2.006 Log2 fold change
rtPCR Log2 fold change relative to untreated cells, MAP2K1 (MAP kinase) (HepG2 cells [3]): −2.534 Log2 fold change
rtPCR Log2 fold change relative to untreated cells, MAPK8 (MAP kinase) (HepG2 cells [3]): −2.068 Log2 fold change
rtPCR Log2 fold change relative to untreated cells, MITF (Drug Resistance) (HepG2 cells [3]): −4.421 Log2 fold change
rtPCR Log2 fold change relative to untreated cells, MNT (Cell Cycle Arrest) (HepG2 cells [3]): −2.804 Log2 fold change
rtPCR Log2 fold change relative to untreated cells, MTOR (PI3K/AKT/MTOR) (HepG2 cells [3]): −1.847 Log2 fold change
rtPCR Log2 fold change relative to untreated cells, NOTCH1 (NOTCH) (HepG2 cells [3]): −1.949 Log2 fold change
rtPCR Log2 fold change relative to untreated cells, PAK3 (P21) (Cell Cycle Arrest) (HepG2 cells [3]): −1.643 Log2 fold change
rtPCR Log2 fold change relative to untreated cells, PIK3C2A (PI3K/AKT/MTOR) (HepG2 cells [3]): −1.77 Log2 fold change
rtPCR Log2 fold change relative to untreated cells, PIK3R5 (PI3K/AKT/MTOR) (HepG2 cells [3]): −1.821 Log2 fold change
rtPCR Log2 fold change relative to untreated cells, RAC1 (MAP kinase) (HepG2 cells [3]): −1.422 Log2 fold change
rtPCR Log2 fold change relative to untreated cells, RASA1 (MAP kinase) (HepG2 cells [3]): −1.307 Log2 fold change
rtPCR Log2 fold change relative to untreated cells, RASSF1 (MAP kinase) (HepG2 cells [3]): −1.813 Log2 fold change
rtPCR Log2 fold change relative to untreated cells, ROCK1 (Cellular Adhesion) (HepG2 cells [3]): −1.213 Log2 fold change
rtPCR Log2 fold change relative to untreated cells, SMAD2 (TGF signaling) (HepG2 cells [3]): −1.617 Log2 fold change
rtPCR Log2 fold change relative to untreated cells, SMAD3 (TGF signaling) (HepG2 cells [3]): −2.487 Log2 fold change
rtPCR Log2 fold change relative to untreated cells, STAT1 (JAK-STAT) (HepG2 cells [3]): −2.228 Log2 fold change
rtPCR Log2 fold change relative to untreated cells, STAT5A (JAK-STAT) (HepG2 cells [3]): −1.559 Log2 fold change
rtPCR Log2 fold change relative to untreated cells, SUFU (Hedgehog) (HepG2 cells [3]): −1.668 Log2 fold change
rtPCR Log2 fold change relative to untreated cells, TAZ (HIPPO) (HepG2 cells [3]): −1.874 Log2 fold change
rtPCR Log2 fold change relative to untreated cells, gene name not printed (Angiogenesis, row r45) (HepG2 cells [3]): −1.521 Log2 fold change
rtPCR Log2 fold change relative to untreated cells, gene name not printed (Cell Cycle Arrest, row r42) (HepG2 cells [3]): −2.312 Log2 fold change
rtPCR Log2 fold change relative to untreated cells, gene name not printed (Cellular Adhesion, row r57) (HepG2 cells [3]): −1.865 Log2 fold change
rtPCR Log2 fold change relative to untreated cells, gene name not printed (HIPPO, row r33) (HepG2 cells [3]): −1.568 Log2 fold change
rtPCR Log2 fold change relative to untreated cells, gene name not printed (PI3K/AKT/MTOR, row r20) (HepG2 cells [3]): −2.204 Log2 fold change
rtPCR Log2 fold change relative to untreated cells, gene name not printed (PI3K/AKT/MTOR, row r22) (HepG2 cells [3]): −2.291 Log2 fold change
rtPCR Log2 fold change relative to untreated cells, gene name not printed (Receptors, row r7) (HepG2 cells [3]): −2.51 Log2 fold change

CCCCCc1cc(O)c2c(c1)OC(C)(C)c1ccc(C)cc1-2 [CBN, Cannabinol]
Protein fold change, DVLD (Cellular Adhesion) (HepG2 cells [2]): 1.66 Fold change
Protein fold change, MEK PO4 (MAP kinase/PI3K) (HepG2 cells [2]): 1.33 Fold change
Protein fold change, PI3K (MAP kinase/PI3K) (HepG2 cells [2]): 1.46 Fold change
Protein fold change, TEAD2 (HIPPO signaling) (HepG2 cells [2]): 1.35 Fold change
Protein fold change, c-MYC (Apoptosis) (HepG2 cells [2]): 1.40 Fold change
Protein fold change, p53 (Apoptosis) (HepG2 cells [2]): 1.22 Fold change
rtPCR Log2 fold change relative to untreated cells, BAD (Apoptosis) (HepG2 cells [3]): −1.041 Log2 fold change
rtPCR Log2 fold change relative to untreated cells, ELK1 (Ca signaling) (HepG2 cells [3]): −1.026 Log2 fold change
rtPCR Log2 fold change relative to untreated cells, MAP3K (MAP kinase) (HepG2 cells [3]): 1.518 Log2 fold change
rtPCR Log2 fold change relative to untreated cells, MAPK8 (MAP kinase) (HepG2 cells [3]): −1.284 Log2 fold change
rtPCR Log2 fold change relative to untreated cells, NOTCH1 (NOTCH) (HepG2 cells [3]): −1.084 Log2 fold change
rtPCR Log2 fold change relative to untreated cells, PIK3C2A (PI3K/AKT/MTOR) (HepG2 cells [3]): −1.181 Log2 fold change
rtPCR Log2 fold change relative to untreated cells, PIK3R5 (PI3K/AKT/MTOR) (HepG2 cells [3]): −2.689 Log2 fold change
rtPCR Log2 fold change relative to untreated cells, PPARG (Receptors) (HepG2 cells [3]): 2.204 Log2 fold change
rtPCR Log2 fold change relative to untreated cells, SMAD3 (TGF signaling) (HepG2 cells [3]): −3.711 Log2 fold change
rtPCR Log2 fold change relative to untreated cells, SMO (Hedgehog) (HepG2 cells [3]): 2.336 Log2 fold change
rtPCR Log2 fold change relative to untreated cells, TAZ (HIPPO) (HepG2 cells [3]): −1.143 Log2 fold change

CCCCCc1cc(O)c(C/C=C(\C)CCC=C(C)C)c(O)c1 [Cannabigerol (CBG), Cannabigerol]
MEI, AUC* % mass [1]: 4.89

C=CC(C)(O)CCC=C(C)C (centres unmarked) [Linalool]
MEI, AUC* % mass [1]: 0.03

Cc1cc(=O)n(-c2ccccc2)n1C [antipyrine]
Hepatic extraction ratio (E) [4]: 0.1

Cc1ncc2n1-c1ccc(Cl)cc1C(c1ccccc1F)=NC2 [midazolam]
Hepatic extraction ratio (E) [4]: 0.5

CC1=CCC2CC1C2(C)C (stereo not drawn) [α-pinene]
MEI, AUC* % mass [1]: 65.77
